In PubChem BioAssay AID248 (DTP/NCI, 2004):
“And” between values parts separate entries of the source, which are not always exact repeats. Identical values can stand only once. Toxic doses and inconclusive results are not listed. Cut-off read from the data, not from the text of the source: active = T/C of 150% or more; inactive = T/C below 125%. Peptide text beside a SMILES is read from it. * marks the point of attachment. Trt = c1ccc(C(c2ccccc2)(c2ccccc2)*)cc1; Boc = CC(C)(C)OC(=O)*

System: L1210 leukemia ip in BDF1 mice, survival T/C
Assay: NCI In Vivo Anticancer Drug Screen. Data for tumor model L1210 Leukemia (intraperitoneal) in B6D2F1 (BDF1) mice
Conditions: higher = longer survival
In short: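 Read-out is survival time, reported as the treated-group measurement over the vehicle-control measurement.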

[1] = endpoint: mean survival time, dose: 50.0 mg/kg/injection, schedule: Q01DX001 (ip), vehicle: saline
[2] = endpoint: mean survival time, dose: 100.0 mg/kg/injection, schedule: Q01DX001 (ip), vehicle: saline
[3] = endpoint: mean survival time, dose: 200.0 mg/kg/injection, schedule: Q01DX001 (ip), vehicle: saline
[4] = endpoint: mean survival time, dose: 100.0 mg/kg/injection, schedule: Q04DX003 (ip), vehicle: Klucel (hydroxypropylcellulose) (HPC)
[5] = endpoint: mean survival time, dose: 200.0 mg/kg/injection, schedule: Q04DX003 (ip), vehicle: Klucel (hydroxypropylcellulose) (HPC)
[6] = endpoint: mean survival time, dose: 100.0 mg/kg/injection, schedule: Q01DX009 (ip), vehicle: saline with Tween-80
[7] = endpoint: mean survival time, dose: 200.0 mg/kg/injection, schedule: Q01DX009 (ip), vehicle: saline with Tween-80
[8] = endpoint: mean survival time, dose: 400.0 mg/kg/injection, schedule: Q01DX001 (ip), vehicle: saline
[9] = endpoint: mean survival time, dose: 100.0 mg/kg/injection, schedule: Q04DX003 (ip), vehicle: saline with Tween-80
[10] = endpoint: mean survival time, dose: 200.0 mg/kg/injection, schedule: Q04DX003 (ip), vehicle: saline with Tween-80
[11] = endpoint: mean survival time, dose: 400.0 mg/kg/injection, schedule: Q04DX003 (ip), vehicle: saline with Tween-80
[12] = endpoint: mean survival time, dose: 100.0 mg/kg/injection, schedule: Q04DX003 (ip), vehicle: saline
[13] = endpoint: mean survival time, dose: 200.0 mg/kg/injection, schedule: Q04DX003 (ip), vehicle: saline
[14] = endpoint: mean survival time, dose: 400.0 mg/kg/injection, schedule: Q04DX003 (ip), vehicle: saline
[15] = endpoint: mean survival time, dose: 6.25 mg/kg/injection, schedule: Q04DX003 (ip), vehicle: saline
[16] = endpoint: mean survival time, dose: 12.5 mg/kg/injection, schedule: Q04DX003 (ip), vehicle: saline
[17] = endpoint: mean survival time, dose: 25.0 mg/kg/injection, schedule: Q04DX003 (ip), vehicle: saline

Measured: T/C

S=P(N1CCCCCC1)(N1CC1)N1CC1
inactive: endpoint: mean survival time, dose: 25.0 mg/kg/injection, schedule: Q01DX Z (ip), vehicle: saline 110 % of control and 116 % of control | [1] 108 % of control | endpoint: mean survival time, dose: 50.0 mg/kg/injection, schedule: Q01DX006 (iv), vehicle: saline 104 % of control | endpoint: mean survival time, dose: 50.0 mg/kg/injection, schedule: Q01DX Z (ip), vehicle: saline 96 % of control | endpoint: mean survival time, dose: 50.0 mg/kg/injection, schedule: Q01DX Z (oral), vehicle: saline 122 % of control | [2] 113 % of control | endpoint: mean survival time, dose: 100.0 mg/kg/injection, schedule: Q01DX006 (iv), vehicle: saline 105 % of control | [3] 105 % of control | endpoint: mean survival time, dose: 200.0 mg/kg/injection, schedule: Q01DX006 (iv), vehicle: saline 104 % of control | endpoint: mean survival time, dose: 250.0 mg/kg/injection, schedule: Q01DX001 (ip), vehicle: saline 112 % of control | endpoint: mean survival time, dose: 500.0 mg/kg/injection, schedule: Q01DX001 (ip), vehicle: saline 104 % of control
active: endpoint: mean survival time, dose: 100.0 mg/kg/injection, schedule: Q01DX Z (ip), vehicle: saline 170 % of control | endpoint: mean survival time, dose: 100.0 mg/kg/injection, schedule: Q01DX Z (oral), vehicle: saline 158 % of control

COc1ccc(C2OC23CCCc2ccccc2C3=O)cc1 (centres undefined)
inactive: [4] 95 % of control | [5] 97 % of control | endpoint: mean survival time, dose: 400.0 mg/kg/injection, schedule: Q04DX003 (ip), vehicle: Klucel (hydroxypropylcellulose) (HPC) 89 % of control

CCc1cc(C)cc(OC(=O)Nc2cccc(Cl)c2)c1
inactive: [6] 88 % of control | [7] 90 % of control

O=C1NC(=O)/C(=C/c2ccco2)N1
inactive: [4] 103 % of control | [5] 90 % of control

CCOC(=O)c1c[nH]c2oc(/C=N/N3CC(CN4CCOCC4)OC3=O)cc2c1=O (centres undefined)
inactive: endpoint: median survival time, dose: 25.0 mg/kg/injection, schedule: Q01DX009 (ip), vehicle: acid diluted with saline 110 % of control | endpoint: median survival time, dose: 50.0 mg/kg/injection, schedule: Q01DX009 (ip), vehicle: acid diluted with saline 111 % of control
active: endpoint: median survival time, dose: 200.0 mg/kg/injection, schedule: Q01DX009 (ip), vehicle: acid diluted with saline 152 % of control

Cc1ccc(-n2c(O)c(N=Nc3ccc(Br)cc3)c(=O)n(-c3ccc(I)cc3)c2=S)cc1
inactive: endpoint: mean survival time, dose: 50.0 mg/kg/injection, schedule: Q01DX001 (ip), vehicle: Klucel (hydroxypropylcellulose) (HPC) 100 % of control | endpoint: mean survival time, dose: 100.0 mg/kg/injection, schedule: Q01DX001 (ip), vehicle: Klucel (hydroxypropylcellulose) (HPC) 109 % of control | endpoint: mean survival time, dose: 200.0 mg/kg/injection, schedule: Q01DX001 (ip), vehicle: Klucel (hydroxypropylcellulose) (HPC) 106 % of control

N#CCCOc1ccccc1
inactive: [2] 108 % of control | [3] 108 % of control | [8] 104 % of control

CCNC(C)(C)C(=O)c1ccc(Cl)s1
inactive: [6] 96 % of control | [9] 100 % of control | [7] 96 % of control | [10] 100 % of control | [11] 98 % of control

C=CSc1ccccc1
inactive: [6] 105 % of control | [7] 93 % of control

O=C1N(c2ccccc2)C(c2ccc([N+](=O)[O-])cc2)C1(c1ccccc1)c1ccccc1 (centres undefined)
inactive: endpoint: mean survival time, dose: 100.0 mg/kg/injection, schedule: Q04DX003 (ip), vehicle: gum acacia 96 % of control | endpoint: mean survival time, dose: 200.0 mg/kg/injection, schedule: Q04DX003 (ip), vehicle: gum acacia 89 % of control | endpoint: mean survival time, dose: 400.0 mg/kg/injection, schedule: Q04DX003 (ip), vehicle: gum acacia 96 % of control

Nc1nc(SCCO)nc2nc[nH]c12
inactive: [9] 96 % of control | [10] 95 % of control | [11] 90 % of control

CCCCCC(=O)NCC(=O)N1CCC(C(=O)NCCCCC(=O)OC)C1 (centres undefined)
inactive: [12] 97 % of control | [13] 94 % of control | [14] 86 % of control

Cc1sc(-c2ccccc2)nc1-c1ccc(N=Cc2ccc(N(CCCl)CCCl)cc2)cc1
inactive: endpoint: mean survival time, dose: 100.0 mg/kg/injection, schedule: Q01DX001 (ip), vehicle: carboxymethylcellulose (CMC) 101 % of control | endpoint: mean survival time, dose: 200.0 mg/kg/injection, schedule: Q01DX001 (ip), vehicle: carboxymethylcellulose (CMC) 101 % of control | endpoint: mean survival time, dose: 400.0 mg/kg/injection, schedule: Q01DX001 (ip), vehicle: carboxymethylcellulose (CMC) 106 % of control

COc1ccc2cc(OC)ccc2c1
inactive: endpoint: mean survival time, dose: 100.0 mg/kg/injection, schedule: Q01DX001 (ip), vehicle: saline sonified 98 % of control | endpoint: mean survival time, dose: 200.0 mg/kg/injection, schedule: Q01DX001 (ip), vehicle: saline sonified 96 % of control | endpoint: mean survival time, dose: 400.0 mg/kg/injection, schedule: Q01DX001 (ip), vehicle: saline sonified 96 % of control

C[P+](c1ccc(Cl)cc1)(c1ccc(Cl)cc1)c1ccc(Cl)cc1
inactive: [15] 114 % of control | [16] 109 % of control | [17] 102 % of control

COC(=O)C(=O)OC(=O)C(=O)OC
inactive: [17] 104 % of control | endpoint: mean survival time, dose: 50.0 mg/kg/injection, schedule: Q04DX003 (ip), vehicle: saline 120 % of control | [12] 92 % of control

CCCCCCOC(=O)C(C)OC(=O)OCCOCCOC(=O)OC(C)C(=O)OCCCCCC (centres undefined)
inactive: [2] 100 % of control | [3] 96 % of control | [8] 100 % of control

Nc1cccc(CC(=O)Nc2ccccc2)c1
inactive: endpoint: mean survival time, dose: 100.0 mg/kg/injection, schedule: Q01DX009 (ip), vehicle: alcohol 93 % of control | endpoint: mean survival time, dose: 100.0 mg/kg/injection, schedule: Q04DX003 (ip), vehicle: alcohol 97 % of control | endpoint: mean survival time, dose: 200.0 mg/kg/injection, schedule: Q01DX009 (ip), vehicle: alcohol 105 % of control | endpoint: mean survival time, dose: 200.0 mg/kg/injection, schedule: Q04DX003 (ip), vehicle: alcohol 100 % of control | endpoint: mean survival time, dose: 400.0 mg/kg/injection, schedule: Q01DX009 (ip), vehicle: alcohol 103 % of control | endpoint: mean survival time, dose: 400.0 mg/kg/injection, schedule: Q04DX003 (ip), vehicle: alcohol 100 % of control

Nc1ccc(-c2ccc(-n3cccc3)cc2)cc1
inactive: endpoint: mean survival time, dose: 25.0 mg/kg/injection, schedule: Q01DX001 (ip), vehicle: saline 100 % of control | [1] 96 % of control | [2] 109 % of control

Cn1cnc2nn[nH]c(=O)c21
inactive: endpoint: mean survival time, dose: 100.0 mg/kg/injection, schedule: Q01DX009 (ip), vehicle: Klucel (hydroxypropylcellulose) (HPC) 94 % of control | [12] 92 % of control | endpoint: mean survival time, dose: 200.0 mg/kg/injection, schedule: Q01DX009 (ip), vehicle: Klucel (hydroxypropylcellulose) (HPC) 96 % of control | [13] 92 % of control | endpoint: mean survival time, dose: 400.0 mg/kg/injection, schedule: Q01DX009 (ip), vehicle: Klucel (hydroxypropylcellulose) (HPC) 90 % of control | [14] 95 % of control

c1cc[n+](CCSCCSCC[n+]2ccccc2)cc1
inactive: endpoint: mean survival time, dose: 3.12 mg/kg/injection, schedule: Q01DX009 (ip), vehicle: acetone 97 % of control | endpoint: mean survival time, dose: 3.12 mg/kg/injection, schedule: Q04DX003 (ip), vehicle: saline 106 % of control | endpoint: mean survival time, dose: 6.25 mg/kg/injection, schedule: Q01DX009 (ip), vehicle: acetone 95 % of control | [15] 101 % of control | endpoint: mean survival time, dose: 12.5 mg/kg/injection, schedule: Q01DX001 (ip), vehicle: saline 105 % of control | [16] 97 % of control

CC(C)(C)OC(=O)NC(CSC(c1ccccc1)(c1ccccc1)c1ccccc1)C(=O)NC(Cc1ccccc1)C(=O)NCC(=O)O (stereo not drawn) (Boc-Cys(Trt)-Phe-Gly-OH; configuration not given here)
inactive: endpoint: mean survival time, dose: 75.0 mg/kg/injection, schedule: Q01DX001 (ip), vehicle: saline 93 % of control | endpoint: mean survival time, dose: 150.0 mg/kg/injection, schedule: Q01DX001 (ip), vehicle: saline 91 % of control

O=C(O)COc1cc(Cl)ccc1Cl
inactive: endpoint: mean survival time, dose: 100.0 mg/kg/injection, schedule: Q04DX002 (ip), vehicle: Klucel (hydroxypropylcellulose) (HPC) 95 % of control | endpoint: mean survival time, dose: 200.0 mg/kg/injection, schedule: Q04DX002 (ip), vehicle: Klucel (hydroxypropylcellulose) (HPC) 95 % of control | endpoint: mean survival time, dose: 400.0 mg/kg/injection, schedule: Q04DX002 (ip), vehicle: Klucel (hydroxypropylcellulose) (HPC) 100 % of control

O=C(c1ccc(Cl)cc1Cl)C(Cl)Cl
inactive: endpoint: mean survival time, dose: 30.0 mg/kg/injection, schedule: Q01DX015 (ip), vehicle: saline 98 % of control | endpoint: mean survival time, dose: 60.0 mg/kg/injection, schedule: Q01DX015 (ip), vehicle: saline 91 % of control | endpoint: mean survival time, dose: 120.0 mg/kg/injection, schedule: Q01DX015 (ip), vehicle: saline 98 % of control
